Measurements as given in patent US9266844B2 (priority 2012, dated 2016).
Entries after “also recorded” stand apart in the source; their conditions may differ. Like-named read-outs stand apart in the source and are kept apart here.

What was measured:
[1] = molecular target: MoMLV Reverse Transcriptase (Moloney murine leukemia virus, UniProt P03355); type: biochemical
[2] = molecular target: FMDV 3Dpol (Foot-and-mouth disease virus serotype O, UniProt P03305); type: biochemical
[3] = molecular target: T1, nsp13 (Severe acute respiratory syndrome coronavirus, UniProt P0C6X7); type: biochemical, SARS-CoV
[4] = system: SARS-CoV replicon; test: microbe, parasite or virus in culture; type: cell-based; conditions: read-out: EC50 Replicon (RT-qPCR)
[5] = in vitro; conditions: human
[6] = molecular target: Dengue virus NS3 helicase (Dengue virus type 2, UniProt P14340); type: biochemical
Dengue virus NS3 helicase, sequence (P14340 1476-2093 limits assumed): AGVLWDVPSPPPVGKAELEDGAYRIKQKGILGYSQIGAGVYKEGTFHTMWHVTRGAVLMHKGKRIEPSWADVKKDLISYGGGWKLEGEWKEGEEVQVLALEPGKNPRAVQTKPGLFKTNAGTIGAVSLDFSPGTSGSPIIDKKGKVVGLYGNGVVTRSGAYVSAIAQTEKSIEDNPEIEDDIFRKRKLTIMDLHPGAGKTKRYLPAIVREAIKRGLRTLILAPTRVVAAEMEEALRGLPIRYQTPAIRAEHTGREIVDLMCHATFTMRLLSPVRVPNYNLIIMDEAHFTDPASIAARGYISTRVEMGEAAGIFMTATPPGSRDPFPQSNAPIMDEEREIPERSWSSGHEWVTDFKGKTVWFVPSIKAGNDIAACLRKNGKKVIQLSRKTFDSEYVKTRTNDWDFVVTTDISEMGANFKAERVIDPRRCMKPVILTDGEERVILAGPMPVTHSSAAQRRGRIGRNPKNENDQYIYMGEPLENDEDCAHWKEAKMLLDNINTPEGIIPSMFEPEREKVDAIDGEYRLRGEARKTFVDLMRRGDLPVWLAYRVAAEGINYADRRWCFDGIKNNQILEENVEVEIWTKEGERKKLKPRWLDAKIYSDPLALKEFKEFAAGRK

[7] = system: SARS-CoV replicon; type: cell-based
[8] = system: HEK293T cells
[9] = molecular target: T1, nsp13; test: biochemical; type: biochemical, SARS-CoV
[10] = molecular target: Klenow fragment of E. coli DNA polymerase I (KF) (Escherichia coli, UniProt P00582); type: biochemical
Klenow fragment of E. coli DNA polymerase I (KF), sequence (P00582 324-928): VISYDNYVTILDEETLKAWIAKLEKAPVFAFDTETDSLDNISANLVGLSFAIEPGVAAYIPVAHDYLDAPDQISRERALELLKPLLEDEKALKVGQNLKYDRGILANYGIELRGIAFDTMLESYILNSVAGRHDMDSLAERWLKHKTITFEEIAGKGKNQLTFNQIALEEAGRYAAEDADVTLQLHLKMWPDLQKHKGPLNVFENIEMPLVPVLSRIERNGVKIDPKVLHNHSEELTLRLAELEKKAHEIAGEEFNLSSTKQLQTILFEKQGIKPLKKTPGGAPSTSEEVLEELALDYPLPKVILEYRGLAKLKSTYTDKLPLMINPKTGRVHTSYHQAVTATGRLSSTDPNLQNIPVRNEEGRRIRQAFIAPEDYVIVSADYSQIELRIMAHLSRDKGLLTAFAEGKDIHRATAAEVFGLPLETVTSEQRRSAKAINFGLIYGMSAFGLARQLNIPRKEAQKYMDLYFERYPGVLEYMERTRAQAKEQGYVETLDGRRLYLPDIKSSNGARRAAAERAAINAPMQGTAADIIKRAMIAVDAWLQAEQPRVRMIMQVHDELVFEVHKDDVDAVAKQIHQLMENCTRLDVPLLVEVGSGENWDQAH

[11] = system: dsDNA (31/18-mer); type: binding
[12] = system: HEK 293T cells
[13] = molecular target: T1, nsp13; type: binding, SARS-CoV
[14] = molecular target: SARS-CoV nsp13 helicase (Severe acute respiratory syndrome coronavirus, UniProt P0C6X7); test: biochemical
[15] = molecular target: HCV NS3h helicase (Hepatitis C virus genotype 1a, UniProt P27958); type: biochemical
HCV NS3h helicase, sequence (P27958 1193-1657 limits assumed): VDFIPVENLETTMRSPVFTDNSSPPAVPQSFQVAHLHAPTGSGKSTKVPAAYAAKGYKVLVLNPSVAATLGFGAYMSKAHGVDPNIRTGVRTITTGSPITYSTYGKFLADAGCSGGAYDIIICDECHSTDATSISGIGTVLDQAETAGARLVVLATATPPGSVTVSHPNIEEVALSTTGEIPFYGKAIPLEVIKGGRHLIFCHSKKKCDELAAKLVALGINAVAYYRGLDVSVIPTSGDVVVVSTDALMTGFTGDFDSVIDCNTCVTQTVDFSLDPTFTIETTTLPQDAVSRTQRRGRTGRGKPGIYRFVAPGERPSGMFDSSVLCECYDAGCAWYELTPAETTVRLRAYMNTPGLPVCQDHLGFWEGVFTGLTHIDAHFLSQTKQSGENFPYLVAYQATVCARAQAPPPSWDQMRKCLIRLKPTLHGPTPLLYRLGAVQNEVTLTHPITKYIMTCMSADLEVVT

[16] = molecular target: WT-nsp13 (Severe acute respiratory syndrome coronavirus, UniProt P0C6X7); test: biochemical
[17] = system: RNA pol II/CMV promoter; type: cell-based

FMDV 3Dpol, sequence (P03305 1863-2332 limits assumed): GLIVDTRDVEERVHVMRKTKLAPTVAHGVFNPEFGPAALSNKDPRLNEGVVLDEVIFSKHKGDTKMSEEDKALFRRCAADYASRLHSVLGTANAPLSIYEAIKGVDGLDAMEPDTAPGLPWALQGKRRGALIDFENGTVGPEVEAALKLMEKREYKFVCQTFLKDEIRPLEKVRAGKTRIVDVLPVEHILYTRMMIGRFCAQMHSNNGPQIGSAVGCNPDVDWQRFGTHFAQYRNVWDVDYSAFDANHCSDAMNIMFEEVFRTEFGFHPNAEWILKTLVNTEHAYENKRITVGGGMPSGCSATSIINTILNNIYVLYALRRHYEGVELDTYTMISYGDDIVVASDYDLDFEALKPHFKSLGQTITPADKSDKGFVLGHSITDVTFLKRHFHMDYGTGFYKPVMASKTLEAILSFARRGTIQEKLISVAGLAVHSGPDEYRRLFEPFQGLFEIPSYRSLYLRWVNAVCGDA

C=CCn1c(S)nnc1CSc1ccccc1[N+](=O)[O-] [SSYA10-001, 3-[(2-nitrophenyl)sulfanylmethyl]-4-prop-2-enyl-1H-1,2,4-triazole-5-thione]
inhibition of MoMLV Reverse Transcriptase [1]: did not cause inhibition | inhibition of FMDV 3Dpol polymerase [2]: did not cause inhibition | effect on ATP hydrolysis by nsp13 [3]: did not affect | EC50 ([4]; Severe acute respiratory syndrome coronavirus, HEK-293T, 48 h): 8.95 µM | EC50 [4]: ~9 µM | CC50 [5]: > 250 µM | inhibition of Dengue virus NS3 helicase activity [6]: specific for SARS-CoV helicase | effect on SARS-CoV replication (RNase protection assay) [7]: interfered with SARS-CoV replication | cytotoxicity at 250 μM [8]: No cytotoxicity was observed | Ki [9]: 6 ± 1.7 µM | mode of inhibition with respect to ATP and nucleic acid substrates [9]: non-competitive | effect on KF polymerization and strand displacement (nucleic acid binding of the substance) [10]: did not prevent | inhibition of KF polymerase [10]: did not cause inhibition | change of pico green fluorescent counts with dsDNA [11]: did not change | cytostatic effect (cell proliferation) [12]: did not interfere with the proliferation | effect on nsp13 binding to DNA [13]: did not affect | IC50 ([14]; IC50 DNA (nsp13 unwinding)): 5.3 ± 2 µM | IC50 ([14]; IC50 RNA (nsp13 unwinding)): 5.7 ± 2.3 µM | IC50 ([14]; IC50 SARS-CoV RNA (nsp13 unwinding)): 5.6 ± 0.5 µM | inhibition at 20 µM ([14]; read-out: inhibition of the helicase activity): ~100% | inhibition of HCV NS3h helicase activity [15]: did not inhibit; also recorded: specific for SARS-CoV helicase | IC50 [16]: 6 µM | amount of RNA synthesized in NRC-transfected cells with vs without compound [17]: No difference was observed
